{"source": "patent US20250101023A1", "about": "“HETEROARYL DERIVATIVE AND USES THEREOF” (IUCF-HYU (INDUSTRY-UNIVERSITY COOPERATION FOUNDATION …, priority 2022, published 2025)", "key": {"[1]": {"target": "CAMK1d (Homo sapiens (Human), UniProt Q8IU85)", "assay": "Kinome-wide profiling", "format": "biochemical", "details": "read-out: % Residual Activity (mean)"}, "[2]": {"target": "FES/FPS (Homo sapiens (Human), UniProt P07332)", "assay": "Kinome-wide profiling", "format": "biochemical", "details": "read-out: % Residual Activity (mean)"}, "[3]": {"target": "HIPK2 (Homo sapiens (Human), UniProt Q9H2X6)", "assay": "Kinome-wide profiling", "format": "biochemical", "details": "read-out: % Residual Activity (mean)"}, "[4]": {"target": "STK32B/YANK2 (Homo sapiens (Human), UniProt Q9NY57)", "assay": "Kinome-wide profiling", "format": "biochemical", "details": "read-out: % Residual Activity (mean)"}, "[5]": {"target": "ASK1/MAP3K5 (Homo sapiens (Human), UniProt Q99683)", "assay": "Kinome-wide profiling", "format": "biochemical", "details": "read-out: % Residual Activity (mean)"}, "[6]": {"target": "GRK2 (Homo sapiens (Human), UniProt P25098)", "assay": "Kinome-wide profiling", "format": "biochemical", "details": "read-out: % Residual Activity (mean)"}, "[7]": {"target": "LKB1 (Homo sapiens (Human), UniProt Q15831)", "assay": "Kinome-wide profiling", "format": "biochemical", "details": "read-out: % Residual Activity (mean)"}, "[8]": {"test_system": "cyclinK", "assay": "Western blot, cyclinK degradation", "format": "cell-based", "details": "SK-Br3 and HCC1954 cell lines, 40 and 200 nM, 2 hours"}, "[9]": {"target": "ABL1 (Homo sapiens (Human), UniProt P00519)", "assay": "Kinome-wide profiling", "format": "biochemical", "details": "read-out: % Residual Activity (mean)"}, "[10]": {"target": "BRK (Homo sapiens (Human), UniProt Q13882)", "sequence (Q13882 whole entry)": "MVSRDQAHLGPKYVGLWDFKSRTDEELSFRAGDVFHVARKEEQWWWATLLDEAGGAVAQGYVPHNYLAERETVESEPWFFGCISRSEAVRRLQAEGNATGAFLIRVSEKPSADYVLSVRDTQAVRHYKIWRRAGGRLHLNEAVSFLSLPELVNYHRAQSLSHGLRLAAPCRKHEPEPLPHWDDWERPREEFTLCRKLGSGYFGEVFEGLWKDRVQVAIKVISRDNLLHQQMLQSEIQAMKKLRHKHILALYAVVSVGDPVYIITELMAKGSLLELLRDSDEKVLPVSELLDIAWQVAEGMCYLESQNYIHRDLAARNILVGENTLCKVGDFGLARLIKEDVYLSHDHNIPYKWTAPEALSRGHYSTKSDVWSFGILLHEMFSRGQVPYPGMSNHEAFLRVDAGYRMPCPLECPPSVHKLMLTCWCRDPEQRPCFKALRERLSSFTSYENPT", "assay": "Kinome-wide profiling", "format": "biochemical", "details": "read-out: % Residual Activity (mean)"}, "[11]": {"target": "P38b/MAPK11 (Homo sapiens (Human), UniProt Q15759)", "assay": "Kinome-wide profiling", "format": "biochemical", "details": "read-out: % Residual Activity (mean)"}, "[12]": {"target": "p70S6K/RPS6KB1 (Homo sapiens (Human), UniProt P23443)", "sequence (P23443 whole entry)": "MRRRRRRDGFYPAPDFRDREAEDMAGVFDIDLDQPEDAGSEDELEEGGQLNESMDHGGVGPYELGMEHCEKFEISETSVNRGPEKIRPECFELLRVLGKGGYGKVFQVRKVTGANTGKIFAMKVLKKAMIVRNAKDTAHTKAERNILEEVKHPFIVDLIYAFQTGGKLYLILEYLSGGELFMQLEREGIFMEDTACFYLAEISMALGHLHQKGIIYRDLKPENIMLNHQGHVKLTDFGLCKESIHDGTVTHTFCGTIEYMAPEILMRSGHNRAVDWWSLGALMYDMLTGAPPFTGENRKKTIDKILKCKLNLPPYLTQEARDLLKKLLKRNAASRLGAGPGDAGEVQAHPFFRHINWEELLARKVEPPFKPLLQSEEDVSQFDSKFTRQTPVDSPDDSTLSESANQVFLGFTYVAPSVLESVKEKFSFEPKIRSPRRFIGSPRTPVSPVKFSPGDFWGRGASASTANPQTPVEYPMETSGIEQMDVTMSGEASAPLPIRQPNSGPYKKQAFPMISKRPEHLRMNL", "assay": "Kinome-wide profiling", "format": "biochemical", "details": "read-out: % Residual Activity (mean)"}, "[13]": {"test_system": "IRS1 and WNT1", "assay": "Western blot, CDK12 downstream gene expression", "format": "cell-based", "details": "SK-Br3 and HCC1954 cell lines, 40 and 200 nM, 24 hours"}, "[14]": {"target": "CDK2/cyclin A (Homo sapiens (Human), UniProt P24941)", "assay": "Kinome-wide profiling", "format": "biochemical", "details": "read-out: % Residual Activity (mean)"}, "[15]": {"target": "PKCzeta (Homo sapiens (Human), UniProt Q05513)", "assay": "Kinome-wide profiling", "format": "biochemical", "details": "read-out: % Residual Activity (mean)"}, "[16]": {"target": "LYN (Homo sapiens (Human), UniProt P07948)", "assay": "Kinome-wide profiling", "format": "biochemical", "details": "read-out: % Residual Activity (mean)"}, "[17]": {"target": "NEK7 (Homo sapiens (Human), UniProt Q8TDX7)", "sequence (Q8TDX7 whole entry)": "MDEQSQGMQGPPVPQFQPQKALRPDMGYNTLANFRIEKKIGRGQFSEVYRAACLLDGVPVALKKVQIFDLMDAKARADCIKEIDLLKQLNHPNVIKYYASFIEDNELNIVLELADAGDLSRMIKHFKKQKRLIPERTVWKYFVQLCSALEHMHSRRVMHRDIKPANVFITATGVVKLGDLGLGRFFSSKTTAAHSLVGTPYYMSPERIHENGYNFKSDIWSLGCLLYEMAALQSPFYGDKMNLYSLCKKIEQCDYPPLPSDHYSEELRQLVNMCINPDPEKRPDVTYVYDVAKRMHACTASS", "assay": "Kinome-wide profiling", "format": "biochemical", "details": "read-out: % Residual Activity (mean)"}, "[18]": {"target": "TRKA (Homo sapiens (Human), UniProt P04629)", "sequence (P04629 33-796)": "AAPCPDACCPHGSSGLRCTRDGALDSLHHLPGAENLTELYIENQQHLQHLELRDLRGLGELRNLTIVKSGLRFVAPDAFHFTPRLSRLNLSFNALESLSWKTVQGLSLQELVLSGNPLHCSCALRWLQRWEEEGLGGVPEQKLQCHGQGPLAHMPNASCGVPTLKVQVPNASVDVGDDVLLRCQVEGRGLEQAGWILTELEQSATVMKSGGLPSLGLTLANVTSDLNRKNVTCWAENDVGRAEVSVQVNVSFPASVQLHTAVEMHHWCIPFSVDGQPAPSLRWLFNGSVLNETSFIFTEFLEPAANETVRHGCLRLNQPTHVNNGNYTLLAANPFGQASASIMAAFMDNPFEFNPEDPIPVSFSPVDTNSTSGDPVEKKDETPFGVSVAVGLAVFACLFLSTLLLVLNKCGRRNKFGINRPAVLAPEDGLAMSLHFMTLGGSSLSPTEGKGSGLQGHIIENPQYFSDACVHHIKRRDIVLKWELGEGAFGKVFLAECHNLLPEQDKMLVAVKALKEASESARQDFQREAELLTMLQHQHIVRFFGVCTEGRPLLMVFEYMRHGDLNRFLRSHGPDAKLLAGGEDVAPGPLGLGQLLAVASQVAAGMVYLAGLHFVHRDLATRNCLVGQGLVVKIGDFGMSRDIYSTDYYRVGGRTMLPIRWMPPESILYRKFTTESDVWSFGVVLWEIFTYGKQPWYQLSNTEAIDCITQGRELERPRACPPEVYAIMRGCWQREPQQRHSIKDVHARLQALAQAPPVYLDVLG", "assay": "Kinome-wide profiling", "format": "biochemical", "details": "read-out: % Residual Activity (mean)"}, "[19]": {"target": "BMPR2 (Homo sapiens (Human), UniProt Q13873)", "assay": "Kinome-wide profiling", "format": "biochemical", "details": "read-out: % Residual Activity (mean)"}, "[20]": {"target": "STK33 (Homo sapiens (Human), UniProt Q9BYT3)", "sequence (Q9BYT3 whole entry)": "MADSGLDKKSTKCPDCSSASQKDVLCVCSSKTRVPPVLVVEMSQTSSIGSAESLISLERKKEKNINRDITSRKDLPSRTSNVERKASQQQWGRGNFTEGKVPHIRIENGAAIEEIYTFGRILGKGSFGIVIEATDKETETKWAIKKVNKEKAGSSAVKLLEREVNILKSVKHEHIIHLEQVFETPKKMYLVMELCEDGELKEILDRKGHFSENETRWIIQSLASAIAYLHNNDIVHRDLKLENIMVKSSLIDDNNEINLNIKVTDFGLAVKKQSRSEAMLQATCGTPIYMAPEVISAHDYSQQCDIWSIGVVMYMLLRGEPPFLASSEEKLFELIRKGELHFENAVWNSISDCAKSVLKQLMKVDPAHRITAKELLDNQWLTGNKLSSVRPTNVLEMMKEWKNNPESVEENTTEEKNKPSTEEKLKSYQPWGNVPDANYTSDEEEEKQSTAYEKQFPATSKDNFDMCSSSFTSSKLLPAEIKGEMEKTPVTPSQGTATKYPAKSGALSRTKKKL", "assay": "Kinome-wide profiling", "format": "biochemical", "details": "read-out: % Residual Activity (mean)"}, "[21]": {"target": "CK1a1 (Homo sapiens (Human), UniProt P48729)", "sequence (P48729 whole entry)": "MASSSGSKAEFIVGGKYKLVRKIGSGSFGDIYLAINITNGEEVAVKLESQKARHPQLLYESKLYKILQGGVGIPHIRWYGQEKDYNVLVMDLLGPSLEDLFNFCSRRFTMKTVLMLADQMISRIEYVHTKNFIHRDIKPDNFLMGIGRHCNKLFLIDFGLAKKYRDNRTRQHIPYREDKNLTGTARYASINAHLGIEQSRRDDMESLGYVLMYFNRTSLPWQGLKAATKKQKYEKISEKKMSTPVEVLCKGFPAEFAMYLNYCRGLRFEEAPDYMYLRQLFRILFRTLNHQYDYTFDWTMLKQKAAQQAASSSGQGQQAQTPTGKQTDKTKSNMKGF", "assay": "Kinome-wide profiling", "format": "biochemical", "details": "read-out: % Residual Activity (mean)"}, "[22]": {"target": "MUSK (Homo sapiens (Human), UniProt O15146)", "assay": "Kinome-wide profiling", "format": "biochemical", "details": "read-out: % Residual Activity (mean)"}, "[23]": {"target": "c-Kit (Homo sapiens (Human), UniProt P10721)", "sequence (P10721 26-976)": "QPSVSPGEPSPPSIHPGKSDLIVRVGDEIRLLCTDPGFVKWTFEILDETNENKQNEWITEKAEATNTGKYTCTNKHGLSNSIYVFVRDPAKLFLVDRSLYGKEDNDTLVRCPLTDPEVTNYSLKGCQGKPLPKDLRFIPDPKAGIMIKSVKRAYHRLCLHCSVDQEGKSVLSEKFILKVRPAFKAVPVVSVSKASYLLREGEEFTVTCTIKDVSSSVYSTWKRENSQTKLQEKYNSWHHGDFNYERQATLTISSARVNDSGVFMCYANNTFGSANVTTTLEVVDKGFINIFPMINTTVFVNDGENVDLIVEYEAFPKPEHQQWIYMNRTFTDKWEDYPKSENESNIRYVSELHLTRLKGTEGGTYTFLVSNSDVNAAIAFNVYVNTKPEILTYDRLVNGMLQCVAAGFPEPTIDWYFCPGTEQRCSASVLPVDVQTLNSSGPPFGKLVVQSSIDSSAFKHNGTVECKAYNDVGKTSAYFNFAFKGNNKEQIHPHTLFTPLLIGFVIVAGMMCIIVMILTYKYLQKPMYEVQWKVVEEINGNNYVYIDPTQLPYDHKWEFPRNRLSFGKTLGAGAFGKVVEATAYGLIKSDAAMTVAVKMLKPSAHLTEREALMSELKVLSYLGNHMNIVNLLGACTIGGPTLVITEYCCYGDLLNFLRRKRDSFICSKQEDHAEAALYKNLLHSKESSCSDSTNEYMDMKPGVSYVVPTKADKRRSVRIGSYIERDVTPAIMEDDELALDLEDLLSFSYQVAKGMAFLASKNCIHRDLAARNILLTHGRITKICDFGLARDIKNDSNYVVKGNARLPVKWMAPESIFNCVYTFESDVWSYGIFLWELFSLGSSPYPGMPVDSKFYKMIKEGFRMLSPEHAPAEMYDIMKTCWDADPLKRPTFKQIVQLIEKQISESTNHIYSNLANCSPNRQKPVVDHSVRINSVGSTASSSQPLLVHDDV", "assay": "Kinome-wide profiling", "format": "biochemical", "details": "read-out: % Residual Activity (mean)"}, "[24]": {"target": "PKCb1 (Homo sapiens (Human), UniProt P05771)", "assay": "Kinome-wide profiling", "format": "biochemical", "details": "read-out: % Residual Activity (mean)"}, "[25]": {"target": "CHK1 (Homo sapiens (Human), UniProt O14757)", "assay": "Kinome-wide profiling", "format": "biochemical", "details": "read-out: % Residual Activity (mean)"}, "[26]": {"target": "NEK4 (Homo sapiens (Human), UniProt P51957)", "assay": "Kinome-wide profiling", "format": "biochemical", "details": "read-out: % Residual Activity (mean)"}, "[27]": {"target": "LYN B (Homo sapiens (Human), UniProt P07948)", "sequence (P07948 other isoform, or with tags, fused parts or gaps)": "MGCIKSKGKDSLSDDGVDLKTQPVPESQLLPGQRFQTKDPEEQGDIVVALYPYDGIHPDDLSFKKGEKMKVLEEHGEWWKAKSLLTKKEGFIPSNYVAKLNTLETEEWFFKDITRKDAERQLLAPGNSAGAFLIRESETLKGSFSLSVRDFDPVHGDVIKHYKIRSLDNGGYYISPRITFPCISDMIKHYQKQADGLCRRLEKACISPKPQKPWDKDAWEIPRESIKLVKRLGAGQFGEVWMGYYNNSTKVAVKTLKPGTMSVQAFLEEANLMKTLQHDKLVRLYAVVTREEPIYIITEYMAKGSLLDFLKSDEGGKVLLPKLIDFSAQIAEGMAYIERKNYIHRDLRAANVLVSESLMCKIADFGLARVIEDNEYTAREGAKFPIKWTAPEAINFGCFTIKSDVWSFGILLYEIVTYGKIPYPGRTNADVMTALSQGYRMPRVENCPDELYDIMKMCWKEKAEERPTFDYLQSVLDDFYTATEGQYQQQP", "assay": "Kinome-wide profiling", "format": "biochemical", "details": "read-out: % Residual Activity (mean)"}, "[28]": {"target": "EPHA1 (Homo sapiens (Human), UniProt P21709)", "assay": "Kinome-wide profiling", "format": "biochemical", "details": "read-out: % Residual Activity (mean)"}, "[29]": {"target": "TAOK2/TAO1 (Homo sapiens (Human), UniProt Q9UL54)", "assay": "Kinome-wide profiling", "format": "biochemical", "details": "read-out: % Residual Activity (mean)"}, "[30]": {"target": "RSK2 (Homo sapiens (Human), UniProt P51812)", "assay": "Kinome-wide profiling", "format": "biochemical", "details": "read-out: % Residual Activity (mean)"}, "[31]": {"target": "PKCa (Homo sapiens (Human), UniProt P17252)", "assay": "Kinome-wide profiling", "format": "biochemical", "details": "read-out: % Residual Activity (mean)"}, "[32]": {"target": "PLK1 (Homo sapiens (Human), UniProt P53350)", "assay": "Kinome-wide profiling", "format": "biochemical", "details": "read-out: % Residual Activity (mean)"}, "[33]": {"target": "CAMKK2 (Homo sapiens (Human), UniProt Q96RR4)", "assay": "Kinome-wide profiling", "format": "biochemical", "details": "read-out: % Residual Activity (mean)"}, "[34]": {"target": "NEK5 (Homo sapiens (Human), UniProt Q6P3R8)", "assay": "Kinome-wide profiling", "format": "biochemical", "details": "read-out: % Residual Activity (mean)"}, "[35]": {"test_system": "HCC1954 cells", "assay": "Breast cancer growth inhibitory activity (Cell-titer Glo, 72 h)", "format": "cell-based", "details": "Homo sapiens, read-out: HCC1954 GI50", "how_it_was_run": "(§1)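 Cells seeded at 2,500 (SK-Br3) or 1,000 (HCC1954) per well and grown 24 h before treatment. Viability read by Cell-titer Glo luminescence; IC50 from titration curve fitting.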"}, "[36]": {"test_system": "SK-Br3 cells", "assay": "Breast cancer growth inhibitory activity (Cell-titer Glo, 72 h)", "format": "cell-based", "details": "Homo sapiens, SK-BR-3; read-out: SK-Br3 GI50", "how_it_was_run": "as §1"}}, "data": [{"smiles": "CCn1cnc2c(NCc3ccc(-c4ccccn4)nc3)nc(-c3ccc(N)nc3)nc21", "note": "[Example 53, N-([2,2′-bipyridin]-5-ylmethyl)-2-(6-aminopyridin-3-yl)-9-ethyl-9H-purin-6-amine]", "values": [{"measurement": "remaining activity at 10 µM", "setting": "[1]", "value": 58, "unit": "%"}, {"measurement": "remaining activity at 10 µM", "setting": "[2]", "value": 6.37, "unit": "%"}, {"measurement": "remaining activity at 10 µM", "setting": "[3]", "value": 81.3, "unit": "%"}, {"measurement": "remaining activity at 10 µM", "setting": "[4]", "value": 57.6, "unit": "%"}, {"measurement": "remaining activity at 10 µM", "setting": "[5]", "value": 18.4, "unit": "%"}, {"measurement": "remaining activity at 10 µM", "setting": "[6]", "value": 99.1, "unit": "%"}, {"measurement": "remaining activity at 10 µM", "setting": "[7]", "value": 0, "unit": "%"}, {"measurement": "cyclinK degradation", "setting": "[8]", "value": "induced cyclinK degradation"}, {"measurement": "cyclinK degradation", "setting": "[8]; listed as Compound 53", "value": "cyclinK levels were greatly suppressed in a dose-dependent manner"}, {"measurement": "remaining activity at 10 µM", "setting": "[9]", "value": 61.2, "unit": "%"}, {"measurement": "remaining activity at 10 µM", "setting": "[10]", "value": 46.6, "unit": "%"}, {"measurement": "remaining activity at 10 µM", "setting": "[11]", "value": 64.7, "unit": "%"}, {"measurement": "remaining activity at 10 µM", "setting": "[12]", "value": 92.1, "unit": "%"}, {"measurement": "expression of IRS1 and WNT1", "setting": "[13]", "value": "inhibited the expression of IRS1 and WNT1"}, {"measurement": "expression of IRS1 and WNT1", "setting": "[13]; listed as Compound 53", "value": "strongly suppressed"}, {"measurement": "remaining activity at 10 µM", "setting": "[14]", "value": 1.19, "unit": "%"}, {"measurement": "remaining activity at 10 µM", "setting": "[15]", "value": 90.2, "unit": "%"}, {"measurement": "remaining activity at 10 µM", "setting": "[16]", "value": 65.7, "unit": "%"}, {"measurement": "remaining activity at 10 µM", "setting": "[17]", "value": 93.2, "unit": "%"}, {"measurement": "remaining activity at 10 µM", "setting": "[18]", "value": 28.7, "unit": "%"}, {"measurement": "remaining activity at 10 µM", "setting": "[19]", "value": 52.4, "unit": "%"}, {"measurement": "remaining activity at 10 µM", "setting": "[20]", "value": 33.5, "unit": "%"}, {"measurement": "remaining activity at 10 µM", "setting": "[21]", "value": 26.5, "unit": "%"}, {"measurement": "remaining activity at 10 µM", "setting": "[22]", "value": 10.2, "unit": "%"}, {"measurement": "remaining activity at 10 µM", "setting": "[23]", "value": 14.2, "unit": "%"}, {"measurement": "remaining activity at 10 µM", "setting": "[24]", "value": 89.9, "unit": "%"}, {"measurement": "remaining activity at 10 µM", "setting": "[25]", "value": 79.5, "unit": "%"}, {"measurement": "remaining activity at 10 µM", "setting": "[26]", "value": 95.8, "unit": "%"}, {"measurement": "remaining activity at 10 µM", "setting": "[27]", "value": 54.4, "unit": "%"}, {"measurement": "remaining activity at 10 µM", "setting": "[28]", "value": 13.2, "unit": "%"}, {"measurement": "remaining activity at 10 µM", "setting": "[29]", "value": 23.8, "unit": "%"}, {"measurement": "remaining activity at 10 µM", "setting": "[30]", "value": 69.4, "unit": "%"}, {"measurement": "remaining activity at 10 µM", "setting": "[31]", "value": 62.4, "unit": "%"}, {"measurement": "remaining activity at 10 µM", "setting": "[32]", "value": 68.3, "unit": "%"}, {"measurement": "remaining activity at 10 µM", "setting": "[33]", "value": 10.6, "unit": "%"}, {"measurement": "remaining activity at 10 µM", "setting": "[34]", "value": 83.8, "unit": "%"}, {"measurement": "GI50", "setting": "[35]", "value": 36, "unit": "nM"}, {"measurement": "GI50", "setting": "[36]", "value": 38, "unit": "nM"}]}]}
